Data taken from patent publication US9867831B2, “Combination treatment of acute myeloid leukemia and myelodysplastic syndrome” (Boehringer Ingelheim International GmbH, priority 2014, dated 2018).

Test system: human AML cell line MV4;11
Experiment: Nude mouse xenograft model derived from human AML cell line MV4;11 (tumor growth)
Assay type: in vivo
Conditions: MV4;11 s.c. xenograft in nude mice; Volasertib 20 mg/kg once a week i.v., Quizartinib 5 or 10 mg/kg daily p.o.; treated 14 days, observation without treatment up to day 87
Procedure: Median tumor volumes are plotted over time. Day 1 was the first day, day 87 the last day of the experiment.
MV4;11 (CRL-9591) cells were obtained from ATCC. […] Cells were cultured in T175 tissue culture flasks at 37° C. and 5% CO2. The medium used was IMDM supplemented with 10% fetal calf serum, 1% NEAA, 1% sodium pyruvate and 1% glutamine.
Mice were 8 week-old athymic female BomTac: NMRI-Foxn1^nu purchased from Taconic, Denmark. After arrival in the animal facility, mice were allowed to adjust to ambient conditions for at least 3 days before they were used for experiments. They were housed in Macrolon® type II cages in groups of 5 under standardized conditions at 21.5±1.5° C. temperature and 55±10% humidity. Standardized diet (PROVIMI KLIBA) and autoclaved tap water were provided ad libitum.
To establish subcutaneous tumors, MV4;11 cells were harvested and resuspended in PBS+5% FCS at 5×10^7 cells/ml. 50 μl of the cell suspension containing 2.5×10^6 cells was then injected subcutaneously into the right flank of the mice (1 site per mouse). […]
The tumor diameter was measured three times a week with a caliper. The volume of each tumor [in mm^3] was calculated according to the formula “tumor volume=length*diameter^2*π/6”. To monitor side effects of treatment, mice were inspected daily for abnormalities and body weight was determined three times a week. […]

Q: With CC(C)(C)c1cc(NC(=O)Nc2ccc(-c3cn4c(n3)sc3cc(OCCN5CCOCC5)ccc34)cc2)no1 [Quizartinib] as the molecule, how does the “tumor growth kinetics (median tumor volumes over time)” value read?
A: outgrowth of the tumor
